Laboratory results published in patent US20140088006A1, “Stem Cell Mobilization and Tissue Repair and Regeneration” (Wellstat Therapeutics Corporation, priority 2011, published 2014).
“And” between values parts separate entries of the source, which are not always exact repeats. Equal values may be shown once. No end group written: not given here.

What was measured:
[1] = tested on: white blood cells in peripheral blood; test: White blood cell number after 4 daily subcutaneous injections; format: in vivo, C57Bl/6 male mice; design: White blood cell number in peripheral blood: unit not given here; conditions: for White blood cell number in peripheral blood: 1 hr after injection
Protocol: This example is based on a protocol for a 4-day course of once-daily Compound X injections into C57Bl/6 male mice similar to G-CSF. Two effective dose levels of Compound X were found previously to mobilize HSC 1 hr after single injection and were selected for this experiment. Four-month old C57Bl/6 male mice (Jackson Laboratories) were subcutaneously injected with 0.9% saline, 125 μg/kg Compound X or 250 μg/kg Compound X on days 1, 2, 3 and 4 as described in Table 4. Each day, one-hour post injections, peripheral blood from 3 mice per group was harvested from the orbital plexus into EDTA-containing tubes. On day 4, a femur and spleen were also removed from mice to assess by FACS whether any toxicity aroused from repeated injections of Compound X.
As in the previous example to determine mobilization of colony-forming cells out of the bone marrow, mononuclear cells from peripheral blood were plated into MethoCult 3434 media (Stem Cell Technologies). Briefly, after white blood cell counting, the remaining peripheral blood was diluted (1:1, v/v) with 0.9% saline (APP Pharmaceutical) and layered (2:1, v/v) onto 1-Step™1.077 A (Accurate Chemicals) in 15-ml centrifuge tubes. Cells were centrifuged at 600×g for 20 min at room temperature. The mononuclear cells were harvested from the interface between the plasma layer and the 1-Step™ A solution using a 1-ml syringe and blunt-end needle. The cells were transferred to 15-ml centrifuge tubes and washed twice in 1×PBS. Cells were resuspended in 1 ml of IMDM and cell counts were obtained using the Coulter counter. Cells were placed into 35-mm Petri dishes at 200,000 cells per dish with 5 dishes per group. Cells incubated for 10 days in a 37° C. and 5% CO2 humidified incubator. CFU colonies were then scored using an inverted microscope—CFU-GM detected on day 7 and CFU-GEMM—on day 10. Data presented in Tables 7, 8 and 9, FIGS. 3 and 4.

[2] = tested on: white blood cells in peripheral blood; test: White blood cell count after 4 daily injections of G-CSF and Compound X; format: in vivo, mice; conditions: 5 μg/mouse each agent s.c. daily for 4 days, pooled blood
Protocol: Compound X and Neupogen (rG-CSF Amgen, lot# P043601) were diluted in PBS. Mice received subcutaneous injections of PBS, Compound X (5 μg/mouse), G-CSF (5 μg/mouse) or Compound X (5 μg/mouse)+G-CSF (5 μg/mouse) for four consecutive days. On the last day of injections, 1 hour post injections, blood was collected through the orbital sinus with heparinized capillary tubes. Blood was pooled from 3 mice/group and white blood cell counts were obtained. Mononuclear cells were isolated by density gradient separation from pooled blood. Cells were washed, counted and plated at 100,000 per dish (5 dishes/group) for CFU-mix and CFU-GM colonies. Blood was also collected and processed on day 8 for colony assay. Results are shown in Tables 10, 11, and 12 and in FIG. 5.

[3] = tested on: white blood cells in peripheral blood; test: White blood cell count in peripheral blood after single subcutaneous injection; format: in vivo, C57Bl6 mice; conditions: for White Blood Cell counts: Cell Count: individual mice
Protocol: (§1) C57Bl6 male mice, from 8 weeks to 4 month of age, from Harlan were used. Mice received subcutaneous injections of saline, Compound X (50 μg/kg) or Compound X (250 μg/kg). After 1 and 4 hours, mice were anesthetized and blood was collected through the orbital sinus with heparinized capillary tubes. 20 μl of blood was removed from each tube for WBC counts;
(§2) In this experiment, C57Bl6 mice received subcutaneous injections of PBS, Compound X (250 μg/kg) or AMD3100 (5 mg/kg). After 1 hr blood was collected through the orbital sinus with heparinized capillary tubes. Blood from each group was pooled, counted and mononuclear cells were isolated by density gradient separation. Cells were washed, counted and plated at 100,000 per dish (5 dishes/group) for CFU-GEMM and CFU-GM colonies. CFU-GEMM colonies were scored on day 14, while CFU-GM colonies on day 7 after plating in MC3434 (Stem cell Technology).

[4] = Blood glucose before and 7 weeks after treatment in wound healing study; format: in vivo, db/db mice; conditions: 4 days i.v. treatment course; 7 weeks after the treatment
Protocol: Note, that mice were taken for the wound healing experiment when their glucose level was high; baseline glucose was measured by glucometer from tail bleed one day before the wound healing experiment next glucose measurement was taken at the end of the study, 7 weeks after the treatment with intravenous injections of Compound X or Saline.

[5] = tested on: hematopoietic stem cells (HSC) and their hematopoietic progenitors (HPC); test: CFU-GM / CFU-GEMM colony assay of peripheral blood mononuclear cells after single subcutaneous injection; format: in vivo, C57Bl6 mice
Protocol: as §1
Remaining blood from each group was pooled and mononuclear cells were isolated by density gradient separation. To enumerate HSC and HPC in peripheral blood cells were washed, counted plated in semi-solid Methylcellulose MC3434 (Stem cell technology) at 100,000 per dish (5 dishes/group) and placed in CO2 incubator at 37° C. Colony-forming unit-granulocyte erythroid macrophage megakaryocyte (CFU-GEMM) and Colony-forming unit-granulocyte macrophage (CFU-GM) were detected under inverted microscope 7 and 10 days after.
as §2

[6] = tested on: CFU-GEMM progenitor cells; test: Mobilization of CFU-GEMM in diabetic db/db mice; format: in vivo
[7] = s.c. 250 μg/kg, 1 hour, individual dishes

Q: With “FPHFDLSHGSAQV [Compound X, tridecapeptide that acts on stem cells]” as the sequence, how does the “White blood cell number in peripheral blood” value ([1]; 125 μg/kg s.c. daily, Day 1) read?
A: 7.4

Q: What about the “White blood cell number in peripheral blood” value ([1]; 125 μg/kg s.c. daily, Day 2) of the same sequence?
A: 8.8

Q: And the “White blood cell number in peripheral blood” value ([1]; 125 μg/kg s.c. daily, Day 3)?
A: 6.0

Q: What about the “White blood cell number in peripheral blood” value ([1]; 125 μg/kg s.c. daily, Day 4) of the same sequence?
A: 8.6

Q: What about the “White blood cell number in peripheral blood” value ([1]; 250 μg/kg s.c. daily, Day 1) of the same sequence?
A: 8.6

Q: What about the “White blood cell number in peripheral blood” value ([1]; 250 μg/kg s.c. daily, Day 2) of the same sequence?
A: 8.2

Q: What about the “White blood cell number in peripheral blood” value ([1]; 250 μg/kg s.c. daily, Day 3) of the same sequence?
A: 10.2

Q: What about the “White blood cell number in peripheral blood” value ([1]; 250 μg/kg s.c. daily, Day 4) of the same sequence?
A: 9.2

Q: And the “White blood cell number” value ([1]; multiple daily injections, 125 and 250 μg/kg)?
A: did not change

Q: And the “White Blood Cell counts: Cell Count” value ([2]; Day 4, 1 hour post injection)?
A: 7.3 ×10^6

Q: And the “White Blood Cell counts: Cell Count” value ([2]; Day 8)?
A: 6.1 ×10^6

Q: What about the “White blood cell count: Cell Count” value ([3]; s.c. 250 μg/kg, 1 hr, pooled blood) of the same sequence?
A: 7.2e+06 mL⁻¹

Q: What about the “White Blood Cell counts: Cell Count” value ([3]; single s.c. 50 μg/kg, 1 hour) of the same sequence?
A: 1.41e+07 mL⁻¹ and 7.8e+06 mL⁻¹ and 9.6e+06 mL⁻¹

Q: And the “White Blood Cell counts: Cell Count” value ([3]; single s.c. 50 μg/kg, 4 hours)?
A: 2.22e+07 mL⁻¹ and 6.9e+06 mL⁻¹ and 1e+07 mL⁻¹

Q: And the “White Blood Cell counts: Cell Count” value ([3]; single s.c. 250 μg/kg, 1 hour)?
A: 9.6e+06 mL⁻¹ and 9.2e+06 mL⁻¹ and 1.79e+07 mL⁻¹

Q: And the “White Blood Cell counts: Cell Count” value ([3]; single s.c. 250 μg/kg, 4 hours)?
A: 1.67e+07 mL⁻¹ and 1.46e+07 mL⁻¹ and 1.03e+07 mL⁻¹

Q: And the “egress of cells from bone marrow into peripheral blood (white blood cell count)” value ([3]; single s.c. 50 or 250 μg/kg)?
A: did not cause massive egress of cells

Q: And the “glucose level in blood” value [4]?
A: decreased glucose level

Q: What about the “increase in number of HSC HPC in blood” value ([5]; 1 hr after s.c. injection) of the same sequence?
A: up to 5 times

Q: What about the “doses with mobilizing activity” value ([5]; doses tested from 5 μg/kg up to 5 mg) of the same sequence?
A: 0.125 to 0.5 mg/kg

Q: What about the “CFU-GEMM, MEAN” value ([5]; s.c. 250 μg/kg, 1 hour) of the same sequence?
A: 3.8 per 100,000 cells

Q: What about the “CFU-GM (day 7), MEAN” value ([5]; s.c. 250 μg/kg, 1 hour) of the same sequence?
A: 4 per 100,000 cells

Q: And the CFU-GEMM [5, 7]?
A: 6 per 100,000 cells and 3 per 100,000 cells (3×) and 4 per 100,000 cells

Q: And the “CFU-GM (day 7)” value [5, 7]?
A: 3 per 100,000 cells (2×) and 6 per 100,000 cells and 4 per 100,000 cells (2×)

Q: And the “number of white blood cells and CFU-GM in peripheral blood” value ([5]; s.c. 250 μg/kg, 1 hr)?
A: did not change

Q: What about the “increase of CFU-GEMM number in peripheral blood” value ([5]; s.c. 250 μg/kg, 1 hr, vs PBS) of the same sequence?
A: 3.8 times

Q: What about the “CFU-GM + CFU-GEMM, MEAN” value ([5]; single s.c. 50 μg/kg, 1 hour) of the same sequence?
A: 5 per 100000 cells

Q: And the “CFU-GM + CFU-GEMM” value ([5]; single s.c. 50 μg/kg, 1 hour, individual dishes)?
A: 5 per 100000 cells and 6 per 100000 cells and 4 per 100000 cells and 3 per 100000 cells and 7 per 100000 cells

Q: What about the “CFU-GM + CFU-GEMM, MEAN” value ([5]; single s.c. 50 μg/kg, 4 hour) of the same sequence?
A: 0.6 per 100000 cells

Q: What about the “CFU-GM + CFU-GEMM” value ([5]; single s.c. 50 μg/kg, 4 hour, individual dishes) of the same sequence?
A: 1 per 100000 cells (3×) and 0 per 100000 cells (2×)

Q: And the “CFU-GM + CFU-GEMM, MEAN” value ([5]; single s.c. 250 μg/kg, 1 hour)?
A: 25 per 100000 cells

Q: What about the “CFU-GM + CFU-GEMM” value ([5]; single s.c. 250 μg/kg, 1 hour, individual dishes) of the same sequence?
A: 24 per 100000 cells (2×) and 20 per 100000 cells and 28 per 100000 cells and 29 per 100000 cells

Q: What about the “CFU-GM + CFU-GEMM, MEAN” value ([5]; single s.c. 250 μg/kg, 4 hour) of the same sequence?
A: 1.4 per 100000 cells

Q: And the “CFU-GM + CFU-GEMM” value ([5]; single s.c. 250 μg/kg, 4 hour, individual dishes)?
A: 1 per 100000 cells (4×) and 3 per 100000 cells

Q: And the “stem cell number (HSC) in circulation” value ([5]; within 1 hr after injection, from approximately 100 HSC under homeostatic conditions)?
A: 300-400 HSC

Q: And the “increase of CFU-GEMM number in peripheral blood vs Vehicle or 250 ug/kg” value ([6]; intravenous 5 mg/kg, one-hour post injection)?
A: > 3 times

Q: And the “mobilization of progenitor cells into the peripheral blood” value ([6]; subcutaneous, doses as high as 5 mg/kg)?
A: failed to mobilize
